From US11584737B2, “Heterocyclic compound” (TAKEDA PHARMACEUTICAL COMPANY LIMITED, priority 2018, dated 2023)

Molecular target: CDK12/CycK complex (Homo sapiens, UniProt Q9NYV4)
Assay: Measurement of CDK12 inhibitory activity by binding assay (TR-FRET, 66 nM BODIPY-FL-labeled AT-7519)
Details: inhibitory rate against CDK12 at 1 μM test compound, 66 nM BODIPY-FL-labeled AT-7519, 2 nM CDK12/CycK
Method: Experimental Example 1: CDK12 Binding Assay
(3) Measurement of CDK12 Inhibitory Activity by Binding Assay
His-tagged CDK12/CycK complex was added to a binding assay buffer supplemented with BODIPY-FL labeled AT-7519, terbium-labeled streptavidin and biotin-labeled anti-histidine antibody, and the mixture was stood for not less than 60 min at room temperature. This solution was added to an assay plate containing a test compound dispensed therein, and the mixture was left standing for 120 min at room temperature. The final concentration of CDK12/CycK complex, BODIPY-FL-labeled AT-7519, terbium-labeled streptavidin and biotin-labeled anti-histidine antibody was set to 2 nM, 66 nM, 0.2 nM, and 0.4 nM, respectively. The fluorescence intensity derived from terbium and BODIPY-FL was measured using Envision. The signal value of each well was determined using the TR-FRET ratio calculated by the following formula. TR-FRET ratio=(fluorescence value of BODIPY-FL)÷(fluorescence value of terbium)
The inhibitory rate (%) of the test compound against CDK12 was calculated by the following formula. Inhibitory rate (%)=(1−(TR-FRET ratio of test compound−blank)÷(control−blank))×100
The TR-FRET ratio of the CDK12 enzyme reaction mixture under compound non-addition conditions is indicated as control, and the TR-FRET ratio under 3 μM AT-7519 addition conditions is indicated as blank.
The inhibitory rate of the test compound against CDK12 at […] is shown below.

Chain of CDK12/CycK complex (Q9NYV4 whole entry, species assumed): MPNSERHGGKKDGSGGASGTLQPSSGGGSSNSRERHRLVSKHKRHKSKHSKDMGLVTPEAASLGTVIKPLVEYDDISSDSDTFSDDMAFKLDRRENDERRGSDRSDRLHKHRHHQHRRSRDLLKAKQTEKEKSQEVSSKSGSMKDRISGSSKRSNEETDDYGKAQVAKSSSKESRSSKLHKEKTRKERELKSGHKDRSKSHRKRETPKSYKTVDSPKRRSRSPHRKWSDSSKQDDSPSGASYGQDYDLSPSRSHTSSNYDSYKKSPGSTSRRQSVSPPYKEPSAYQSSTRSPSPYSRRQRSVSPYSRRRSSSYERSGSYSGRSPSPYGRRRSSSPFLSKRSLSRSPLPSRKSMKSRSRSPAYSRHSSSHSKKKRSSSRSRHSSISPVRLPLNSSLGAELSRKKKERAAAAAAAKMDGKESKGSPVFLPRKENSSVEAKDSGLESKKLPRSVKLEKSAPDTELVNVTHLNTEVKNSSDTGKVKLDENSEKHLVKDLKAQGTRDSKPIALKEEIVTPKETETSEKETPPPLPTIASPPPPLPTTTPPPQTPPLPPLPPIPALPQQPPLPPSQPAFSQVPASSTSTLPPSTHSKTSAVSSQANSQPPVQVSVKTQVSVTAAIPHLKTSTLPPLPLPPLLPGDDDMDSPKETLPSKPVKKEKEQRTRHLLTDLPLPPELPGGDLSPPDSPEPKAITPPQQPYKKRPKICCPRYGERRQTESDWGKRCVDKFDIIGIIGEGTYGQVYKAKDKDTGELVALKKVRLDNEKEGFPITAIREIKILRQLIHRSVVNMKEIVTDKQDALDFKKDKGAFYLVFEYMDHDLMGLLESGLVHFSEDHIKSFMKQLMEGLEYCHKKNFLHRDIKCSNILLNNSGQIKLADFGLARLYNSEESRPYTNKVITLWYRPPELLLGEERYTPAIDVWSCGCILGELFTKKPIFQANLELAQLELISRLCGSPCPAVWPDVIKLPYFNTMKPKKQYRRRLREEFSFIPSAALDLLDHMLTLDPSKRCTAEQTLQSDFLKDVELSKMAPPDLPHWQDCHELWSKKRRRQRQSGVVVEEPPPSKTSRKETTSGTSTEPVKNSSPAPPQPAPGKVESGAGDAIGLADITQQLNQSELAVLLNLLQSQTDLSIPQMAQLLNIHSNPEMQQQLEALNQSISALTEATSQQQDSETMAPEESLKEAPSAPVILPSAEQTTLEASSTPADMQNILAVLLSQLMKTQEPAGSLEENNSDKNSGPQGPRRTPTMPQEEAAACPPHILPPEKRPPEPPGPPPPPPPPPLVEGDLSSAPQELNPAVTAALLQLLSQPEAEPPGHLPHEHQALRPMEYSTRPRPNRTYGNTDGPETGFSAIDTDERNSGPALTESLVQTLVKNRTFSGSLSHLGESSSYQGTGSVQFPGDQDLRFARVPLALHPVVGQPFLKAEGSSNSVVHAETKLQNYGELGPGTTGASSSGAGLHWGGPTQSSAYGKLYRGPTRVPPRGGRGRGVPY
Chain of CDK12/CycK complex (O75909 whole entry partner, species assumed): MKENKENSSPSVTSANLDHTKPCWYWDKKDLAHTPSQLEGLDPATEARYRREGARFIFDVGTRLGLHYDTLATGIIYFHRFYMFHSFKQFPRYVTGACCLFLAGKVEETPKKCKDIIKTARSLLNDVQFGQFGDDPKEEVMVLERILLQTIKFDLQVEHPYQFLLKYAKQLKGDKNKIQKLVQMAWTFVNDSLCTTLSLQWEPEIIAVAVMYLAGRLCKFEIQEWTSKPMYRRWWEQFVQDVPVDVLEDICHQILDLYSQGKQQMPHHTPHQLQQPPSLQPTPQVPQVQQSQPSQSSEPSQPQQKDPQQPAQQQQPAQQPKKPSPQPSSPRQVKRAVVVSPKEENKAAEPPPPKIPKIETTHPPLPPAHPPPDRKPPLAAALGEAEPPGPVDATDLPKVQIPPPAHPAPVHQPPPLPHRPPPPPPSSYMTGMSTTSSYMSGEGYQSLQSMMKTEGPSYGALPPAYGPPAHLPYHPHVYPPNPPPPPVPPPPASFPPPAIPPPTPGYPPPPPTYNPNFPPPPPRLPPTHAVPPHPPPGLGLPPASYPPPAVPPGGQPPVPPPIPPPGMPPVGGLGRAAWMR

inhibition at 1 µM [%] | SMILES
102 | COc1ncc(-c2ccc(N(C(=O)N[C@@H](C)c3ccccc3)[C@H]3CC[C@H](Nc4ncc(C(F)(F)F)c(N5CC(C)(O)C5)n4)CC3)nc2)cn1 [Example 633, 1-(trans-4-((4-(3-hydroxy-3-methylazetidin-1-yl)-5-(trifluoromethyl)pyrimidin-2-yl)amino)cyclohexyl)-1-(5-(2-methoxypyrimidin-5-yl)pyridin-2-yl)-3-((1S)-1-phenylethyl)urea]
104 | COc1ncc(-c2ccc(N(C(=O)NCc3ccccn3)[C@H]3CC[C@H](Nc4ncc(C(F)(F)F)c(N5CC(C)(O)C5)n4)CC3)nc2)cn1 [Example 630, 1-(trans-4-((4-(3-hydroxy-3-methylazetidin-1-yl)-5-(trifluoromethyl)pyrimidin-2-yl)amino)cyclohexyl)-1-(5-(2-methoxypyrimidin-5-yl)pyridin-2-yl)-3-(pyridin-2-ylmethyl)urea]
97 | COc1ncc(-c2cnc(N(C(=O)NCc3ccccc3)[C@H]3CC[C@H](Nc4ncc(C#N)c(N5CC(C)(O)C5)n4)CC3)cn2)cn1 [Example 620, 3-benzyl-1-(trans-4-((5-cyano-4-(3-hydroxy-3-methylazetidin-1-yl)pyrimidin-2-yl)amino)cyclohexyl)-1-(5-(2-methoxypyrimidin-5-yl)pyrazin-2-yl)urea]
103 | COc1ncc(-c2ccc(N(C(=O)N[C@H](C)c3ccccc3)[C@H]3CC[C@H](Nc4ncc(C(F)(F)F)c(N5CC(C)(O)C5)n4)CC3)nc2)cn1 [Example 631, 1-(trans-4-((4-(3-hydroxy-3-methylazetidin-1-yl)-5-(trifluoromethyl)pyrimidin-2-yl)amino)cyclohexyl)-1-(5-(2-methoxypyrimidin-5-yl)pyridin-2-yl)-3-((1R)-1-phenylethyl)urea]
100 | COc1ncc(-c2ccc(N(C(=O)OCc3ccccn3)[C@H]3CC[C@H](Nc4ncc(C(F)(F)F)c(OC5COC5)n4)CC3)nc2)cn1 [Example 629, pyridin-2-ylmethyl (5-(2-methoxypyrimidin-5-yl)pyridin-2-yl) (trans-4-((4-(oxetan-3-yloxy)-5-(trifluoromethyl)pyrimidin-2-yl)amino)cyclohexyl)carbamate]
98 | COc1ncc(-c2cnc(N(C(=O)OCc3ccccc3)[C@H]3CC[C@H](Nc4ncc(C#N)c(N5CC(C)(O)C5)n4)CC3)nc2)cn1 [Example 619, benzyl (trans-4-((5-cyano-4-(3-hydroxy-3-methylazetidin-1-yl)pyrimidin-2-yl)amino)cyclohexyl) (2′-methoxy-5,5′-bipyrimidin-2-yl)carbamate]
100 | COc1ncc(-c2ccc(N(C(=O)OCc3ccccn3)[C@H]3CC[C@H](Nc4ncc(C(F)(F)F)c(N5CC(C)(O)C5)n4)CC3)nc2)cn1 [Example 628, pyridin-2-ylmethyl (trans-4-((4-(3-hydroxy-3-methylazetidin-1-yl)-5-(trifluoromethyl)pyrimidin-2-yl)amino)cyclohexyl) (5-(2-methoxypyrimidin-5-yl)pyridin-2-yl)carbamate]
103 | COc1ncc(-c2ccc(N(C(=O)NCc3ccccc3)[C@H]3CC[C@H](Nc4ncc(C(F)(F)F)c(N5CC(C)(O)C5)n4)CC3)nc2)cn1 [Example 625, 3-benzyl-1-(trans-4-((4-(3-hydroxy-3-methylazetidin-1-yl)-5-(trifluoromethyl)pyrimidin-2-yl)amino)cyclohexyl)-1-(5-(2-methoxypyrimidin-5-yl)pyridin-2-yl)urea]
98 | COc1ncc(-c2ccc(N(C(=O)COc3ccccc3)[C@H]3CC[C@H](Nc4ncc(C(F)(F)F)c(OC5COC5)n4)CC3)nc2)cn1 [Example 627, N-(5-(2-methoxypyrimidin-5-yl)pyridin-2-yl)-N-(trans-4-((4-(oxetan-3-yloxy)-5-(trifluoromethyl)pyrimidin-2-yl)amino)cyclohexyl)-2-phenoxyacetamide]
100 | COc1ncc(-c2ccc(N(C(=O)COc3ccccc3)[C@H]3CC[C@H](Nc4ncc(C(F)(F)F)c(N5CC(C)(O)C5)n4)CC3)nc2)cn1 [Example 623, N-(trans-4-((4-(3-hydroxy-3-methylazetidin-1-yl)-5-(trifluoromethyl)pyrimidin-2-yl)amino)cyclohexyl)-N-(5-(2-methoxypyrimidin-5-yl)pyridin-2-yl)-2-phenoxyacetamide]
101 | COc1ncc(-c2ccc(N(C(=O)NCc3ccccc3)[C@H]3CC[C@H](Nc4ncc(C(F)(F)F)c(N5CCCC(O)CC5)n4)CC3)nc2)cn1 (stereo partly drawn) [Example 592, 3-benzyl-1-(trans-4-((4-(4-hydroxyazepan-1-yl)-5-(trifluoromethyl)pyrimidin-2-yl)amino)cyclohexyl)-1-(5-(2-methoxypyrimidin-5-yl)pyridin-2-yl)urea]
105 | COc1ncc(-c2ccc(N(C(=O)NCc3ccccc3)[C@H]3CC[C@H](Nc4ncc(C#N)c(N5CC(C)(O)C5)n4)CC3)nc2)cn1 [Example 626, 3-benzyl-1-(trans-4-((5-cyano-4-(3-hydroxy-3-methylazetidin-1-yl)pyrimidin-2-yl)amino)cyclohexyl)-1-(5-(2-methoxypyrimidin-5-yl)pyridin-2-yl)urea]

Second part, the molecule before the results:

SMILES | inhibition at 1 µM [%]
Cn1ccc(-c2ccc(N(C(=O)NCc3ccccc3)[C@H]3CC[C@H](Nc4ncc(C#N)c(-c5ccc(C#N)s5)n4)CC3)cn2)cc1=O [Example 492, 3-benzyl-1-(trans-4-((5-cyano-4-(5-cyano-2-thienyl)pyrimidin-2-yl)amino)cyclohexyl)-1-(1′-methyl-2′-oxo-1′,2′-dihydro-2,4′-bipyridin-5-yl)urea] | 92
Cn1cc(-c2ccc(N(C(=O)NCc3ccccc3)[C@H]3CC[C@H](Nc4ncc(C#N)c(NC5COC5)n4)CC3)cc2)ccc1=O [Example 483, 3-benzyl-1-(trans-4-((5-cyano-4-(oxetan-3-ylamino)pyrimidin-2-yl)amino)cyclohexyl)-1-(4-(1-methyl-6-oxo-1,6-dihydropyridin-3-yl)phenyl)urea] | 103
Cn1cc(-c2ccc(N(C(=O)NCc3ccccc3)[C@H]3CC[C@H](Nc4ncc(C#N)c(N5CC(C)(O)C5)n4)CC3)nc2)cn1 [Example 482, 3-benzyl-1-(trans-4-((5-cyano-4-(3-hydroxy-3-methylazetidin-1-yl)pyrimidin-2-yl)amino)cyclohexyl)-1-(5-(1-methyl-1H-pyrazol-4-yl)pyridin-2-yl) urea] | 104
Cn1cc(-c2ccc(N(C(=O)NCc3ccccc3)[C@H]3CC[C@H](Nc4ncc(C#N)c(NC5COC5)n4)CC3)nn2)cn1 [Example 532, 3-benzyl-1-(trans-4-((5-cyano-4-(oxetan-3-ylamino)pyrimidin-2-yl)amino)cyclohexyl)-1-(6-(1-methyl-1H-pyrazol-4-yl)pyridazin-3-yl)urea] | 106
Cn1cc(-c2ccc(N(C(=O)NCc3ccccc3)[C@H]3CC[C@H](Nc4ncc(C#N)c(-c5ccc(C#N)s5)n4)CC3)nn2)cn1 [Example 538, 3-benzyl-1-(trans-4-((5-cyano-4-(5-cyano-2-thienyl)pyrimidin-2-yl)amino)cyclohexyl)-1-(6-(1-methyl-1H-pyrazol-4-yl)pyridazin-3-yl)urea] | 86
Cc1cc(-c2nc(N[C@H]3CC[C@H](N(C(=O)NCc4ccccc4)c4cnc(-c5cnn(C)c5)cn4)CC3)ncc2C#N)[nH]n1 [Example 552, 3-benzyl-1-(trans-4-((5-cyano-4-(3-methyl-1H-pyrazol-5-yl)pyrimidin-2-yl)amino)cyclohexyl)-1-(5-(1-methyl-1H-pyrazol-4-yl)pyrazin-2-yl) urea] | 98
COc1ncc(-c2ccc(N(C(=O)OCc3ccccc3)[C@H]3CC[C@H](Nc4ncc(C#N)c(N5CCCC(O)CC5)n4)CC3)nc2)cn1 (stereo partly drawn) [Example 599, benzyl (trans-4-((5-cyano-4-(4-hydroxyazepan-1-yl)pyrimidin-2-yl)amino)cyclohexyl) (5-(2-methoxypyrimidin-5-yl)pyridin-2-yl)carbamate] | 102
Cc1cc(-c2nc(N[C@H]3CC[C@H](N(C(=O)NCc4ccccc4)c4ccc(-c5cnn(C)c5)nn4)CC3)ncc2C#N)[nH]n1 [Example 542, 3-benzyl-1-(trans-4-((5-cyano-4-(3-methyl-1H-pyrazol-5-yl)pyrimidin-2-yl)amino)cyclohexyl)-1-(6-(1-methyl-1H-pyrazol-4-yl)pyridazin-3-yl)urea] | 100
Cn1cc(-c2ccc(N(C(=O)NCc3ccccc3)[C@H]3CC[C@H](Nc4ncc(C#N)c(NCCCO)n4)CC3)cc2)cn1 [Example 199, 3-benzyl-1-(trans-4-((5-cyano-4-((3-hydroxypropyl)amino)pyrimidin-2-yl)amino)cyclohexyl)-1-(4-(1-methyl-1H-pyrazol-4-yl)phenyl)urea] | 101
COc1ncc(-c2ccc(N(C(=O)COc3ccccc3)[C@H]3CC[C@H](Nc4ncc(C#N)c(NC5COC5)n4)CC3)nc2)cn1 [Example 587, N-(trans-4-((5-cyano-4-(oxetan-3-ylamino)pyrimidin-2-yl)amino)cyclohexyl)-N-(5-(2-methoxypyrimidin-5-yl)pyridin-2-yl)-2-phenoxyacetamide] | 102
